Publication PMC5697189 (Journal of Veterinary Internal Medicine, 2017)
Like-named read-outs stand apart in the source and are kept apart here.

What was measured:
[1] = system: recombinant canine GSTT5 (reference); test: spectrophotometric glutathione conjugation assay, Michaelis-Menten fit; type: biochemical, Canis lupus familiaris; conditions: co-substrate glutathione (5 mM); pH and temperature not stated
[2] = system: recombinant canine GSTT5 (reference); conditions: co-substrate glutathione (5 mM); pH and temperature not stated

**Q.** For O=[N+]([O-])c1ccc(Cl)c(Cl)c1 [1,2-dichloro-4-nitrobenzene, 1,2‐dichloro‐4‐nitrobenzene], which Km [1] is on record?
**A.** 168 ± 27 µM

**Q.** What about the Km [2] of the same compound?
**A.** 164 ± 22 µM
